Each compound was assayed against T1, CDK2 (Homo sapiens, UniProt P24941) (assay: Phospho-RB measurement in OVCAR3 cells (HTRF phospho-RB cellular kit)). Conditions: inhibition of RB phosphorylation at S807/811 (HTRF, TR-FRET ratio 665/620), 24 h compound treatment, 0.3 to 10,000 nM.
T1 construct: endogenous in cells; host or cells: OVCAR3 cells
Type: cell-based
How it was run: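 IC50 came from a four-parameter logistic fit of the DMSO-normalized TR-FRET ratio (665/620 nm). That ratio reflects RB phosphorylation at S807/811, read with an HTRF antibody pair 4 h after adding lysate at room temperature.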

SMILES	IC50 [nM]
COc1cccc2c1CN(S(=O)(=O)Nc1cccc(-c3nc(C(C)(C)C)sc3-c3ccnc(N[C@H]4[C@@H]5CS(=O)(=O)C[C@@H]54)n3)c1F)C2 [Example 221, N-(3-(2-(tert-butyl)-5-(2-(((1R,5S,6r)-3,3-dioxido-3-thiabicyclo [3.1.0]hexan-6-yl)amino)pyrimidin-4-yl)thiazol-4-yl)-2-fluorophenyl)-4-methoxyisoindoline-2-sulfonamide]	35.5
CC(C)(C)c1nc(-c2cccc(NS(=O)(=O)N3Cc4ccncc4C3)c2F)c(-c2ccnc(N[C@H]3[C@@H]4CS(=O)(=O)C[C@@H]43)n2)s1 [Example 222, N-(3-(2-(tert-butyl)-5-(2-(((1R,5S,6r)-3,3-dioxido-3-thiabicyclo[3.1.0]hexan-6-yl)amino)pyrimidin-4-yl)thiazol-4-yl)-2-fluorophenyl)-1,3-dihydro-2H-pyrrolo[3,4-c]-pyridine-2-sulfonamide]	152
CC(C)(C)c1nc(-c2cccc(NS(=O)(=O)N3CCc4ccc(C#N)cc43)c2F)c(-c2ccnc(N[C@H]3[C@@H]4CS(=O)(=O)C[C@@H]43)n2)s1 [Example 223, N-(3-(2-(tert-butyl)-5-(2-(((1R,5S,6r)-3,3-dioxido-3-thiabicyclo [3.1.0]hexan-6-yl)amino)pyrimidin-4-yl)thiazol-4-yl)-2-fluorophenyl)-6-cyanoindoline-1-sulfonamide]	89
CC(C)(C)c1nc(-c2cccc(NS(=O)(=O)N3Cc4cccc(-c5ccccc5)c4C3)c2F)c(-c2ccnc(NC3CCN(S(C)(=O)=O)CC3)n2)s1 [Example 224, N-(3-(2-(tert-butyl)-5-(2-((1-(methylsulfonyl)-piperidin-4-yl)amino)-pyrimidin-4-yl)thiazol-4-yl)-2-fluoro-phenyl)-4-phenylisoindoline-2-sulfonamide]	300
CC(C)(C)c1nc(-c2cccc(NS(=O)(=O)N3CCc4ccc(C#N)cc43)c2F)c(-c2ccnc(Nc3ccc(N4CCNCC4)cc3)n2)s1 [Example 225, N-(3-(2-(tert-butyl)-5-(2-((4-(piperazin-1-yl)phenyl)amino)pyrimidin-4-yl)-thiazol-4-yl)-2-fluorophenyl)-6-cyano-indoline-1-sulfonamide]	456
CC(C)Oc1cccc2c1CN(S(=O)(=O)Nc1cccc(-c3nc(C(C)(C)C)sc3-c3ccnc(NC4CC5(C4)CS(=O)(=O)C5)n3)c1F)C2 [Example 226, N-(3-(2-(tert-butyl)-5-(2-((2,2-dioxido-2-thiaspiro[3.3]heptan-6-yl)amino)-pyrimidin-4-yl)thiazol-4-yl)~2~fluoro-phenyl)-4-isopropoxyiso-indoline-2-sulfonamide]	527
CC(C)(C)c1nc(-c2cccc(NS(=O)(=O)N3Cc4cccc(-c5cccc(C#N)c5)c4C3)c2F)c(-c2ccnc(NC3CCN(S(C)(=O)=O)CC3)n2)s1 [Example 227, N-(3-(2-(tert-butyl)-5-(2-((1-(methylsulfonyl)-piperidin-4-yl)amino)-pyrimidin-4-yl)thiazol-4-yl)-2-fluoro-phenyl)-4-(3-cyanophenyl)-isoindoline-2-sulfonamide]	517
CC(C)(C)c1nc(-c2cccc(NS(=O)(=O)N3Cc4cccc(C5CCCCC5)c4C3)c2F)c(-c2ccnc(NC3CCN(S(C)(=O)=O)CC3)n2)s1 [Example 228, N-(3-(2-(tert-butyl)-5-(2-((1-(methylsulfonyl)-piperidin-4-yl)amino)-pyrimidin-4-yl)thiazol-4-yl)-2-fluoro-phenyl)-4-cyclohexyliso-indoline-2-sulfonamide]	1510
CC(O)c1cccc2c1CCN2S(=O)(=O)Nc1cccc(-c2nc(C(C)(C)C)sc2-c2ccnc(NC3CC4(C3)CS(=O)(=O)C4)n2)c1F (centres unmarked) [Example 229, N-(3-(2-(tert-butyl)-5-(2-((2,2-dioxido-2-thiaspiro[3.3]heptan-6-yl)amino)-pyrimidin-4-yl)thiazol-4-yl)-2-fluoro-phenyl)-4-(1-hydroxyethyl)-indoline-1-sulfonamide]	145
CC(C)(C)c1nc(-c2cccc(NS(=O)(=O)N3CCc4c3cccc4C(C)(C)O)c2F)c(-c2ccnc(NC3CC4(C3)CS(=O)(=O)C4)n2)s1 [Example 230, N-(3-(2-(tert-butyl)-5-(2-((2,2-dioxido-2-thiaspiro[3.3]heptan-6-yl)amino)-pyrimidin-4-yl)thiazol-4-yl)~2-fluoro-phenyl)-4-(2-hydroxypropan-2-yl)-indoline-1-sulfonamide]	354
CC(C)(C)c1nc(-c2cccc(NS(=O)(=O)N3Cc4ccc(CO)cc4C3)c2F)c(-c2ccnc(NC3CC4(C3)CS(=O)(=O)C4)n2)s1 [Example 231, N-(3-(2-(tert-butyl)-5-(2-((2,2-dioxido-2-thiaspiro[3.3]heptan-6-yl)amino)-pyrimidin-4-yl)thiazol-4-yl)-2-fluorophenyl)-5-(hydroxymethyl)-isoindoline-2-sulfonamide]	77.4

Second part, the compound after the results:

IC50 [nM]	SMILES
939	CC(C)(C)c1nc(-c2cccc(NS(=O)(=O)N3Cc4cccc(Cc5ccccc5)c4C3)c2F)c(-c2ccnc(NC3CC4(C3)CS(=O)(=O)C4)n2)s1 [Example 232, 4-benzyl-N-(3-(2-(tert-butyl)-5-(2-((2,2-dioxido-2-thiaspiro[3.3]heptan-6-yl)amino)-pyrimidin-4-yl)thiazol-4-yl)-2-fluorophenyl)-isoindoline-2-sulfonamide]
765	COCCN1CCN(c2ccc(Nc3nccc(-c4sc(C(C)(C)C)nc4-c4cccc(NS(=O)(=O)N5CCc6ccc(C#N)cc65)c4F)n3)cc2)CC1 [Example 233, N-(3-(2-(tert-butyl)-5-(2-((4-(4-(2-methoxy-ethyl)piperazin-1-yl)phenyl)-amino)-pyrimidin-4-yl)thiazol-4-yl)-2-fluorophenyl)-6-cyanoindoline-1-sulfonamide]
1200	COCCOCCN1CCN(c2ccc(Nc3nccc(-c4sc(C(C)(C)C)nc4-c4cccc(NS(=O)(=O)N5CCc6ccc(C#N)cc65)c4F)n3)cc2)CC1 [Example 234, N-(3-(2-(tert-butyl)-5-(2-((4-(4-(2-(2-methoxy-ethoxy)ethyl)piperazin-1-yl)phenyl)amino)-pyrimidin-4-yl)thiazol-4-yl)-2-fluorophenyl)-6-cyanoindoline-1-sulfonamide]
3390	CC(C)(C)OC(=O)N1CCN(c2ccc(Nc3nccc(-c4sc(C(C)(C)C)nc4-c4cccc(NS(=O)(=O)N5CCc6ccc(C#N)cc65)c4F)n3)cc2)CC1 [Example 235, tert-butyl 4-(4-((4-(2-(tert-butyl)-4-(3-((6-cyanoindoline)-1-sulfonamido)-2-fluorophenyl)thiazol-5-yl)pyrimidin-2-yl)amino)phenyl) piperazine-1-carboxylate]
477	CC1(c2nc(-c3cccc(NS(=O)(=O)N4CCc5ccc(C#N)cc54)c3F)c(-c3ccnc(Nc4ccc(N5CCNCC5)cc4)n3)s2)CCOCC1 [Example 236, 6-cyano-N-(2-fluoro-3-(2-(4-methyltetrahydro-2H-pyran-4-yl)-5-(2-((4-(piperazin-1-yl)-phenyl)amino)-pyrimidin-4-yl)thiazol-4-yl)-phenyl)indoline-1-sulfonamide]
297	CC(C)(C)c1nc(-c2cccc(NS(=O)(=O)N3Cc4cccc(OCCO)c4C3)c2F)c(-c2ccnc(NC3CCN(S(C)(=O)=O)CC3)n2)s1 [Example 237, N-(3-(2-(tert-butyl)-5-(2-((1-(methylsulfonyl)-piperidin-4-yl)amino)-pyrimidin-4-yl)thiazol-4-yl)-2-fluoro-phenyl)-4-(2-hydroxyethoxy)-isoindoline-2-sulfonamide]
295	CC(C)(C)c1nc(-c2cccc(NS(=O)(=O)N3CCc4c(CC#N)cccc43)c2F)c(-c2ccnc(NC3CC4(C3)CS(=O)(=O)C4)n2)s1 [Example 238, N-(3-(2-(tert-butyl)-5-(2-((2,2-dioxido-2-thiaspiro[3.3]heptan-6-yl)amino)-pyrimidin-4-yl)thiazol-4-yl)-2-fluoro-phenyl)-4-(cyanomethyl) indoline-1-sulfonamide]
4690	CC(C)(C)c1nc(-c2cccc(NS(=O)(=O)N3Cc4ccnc(O)c4C3)c2F)c(-c2ccnc(NC3CCN(S(C)(=O)=O)CC3)n2)s1 [Example 239, N-(3-(2-(tert-butyl)-5-(2-((1-(methylsulfonyl)-piperidin-4-yl)amino)-pyrimidin-4-yl)thiazol-4-yl)-2-fluoro-phenyl)-4-hydroxy-1,3-dihydro-2H-pyrrolo[3,4-c] pyridine-2-sulfonamide]
38.2	CC1(c2nc(-c3cccc(NS(=O)(=O)N4CCc5ccc(C#N)cc54)c3F)c(-c3ccnc(NC4CC5CS(=O)(=O)CC5C4)n3)s2)CCOCC1 (centres unmarked) [Example 240, 6-cyano-N-(3-(5-(2-((2,2-dioxidohexa-hydro-1H-cyclopenta[c]thiophen-5-yl)amino)-pyrimidin-4-yl)-2-(4-methyl-tetrahydro-2H-pyran-4-yl)thiazol-4-yl)-2-fluorophenyl)-indoline-1-sulfonamide]
521	CN(C)Cc1cccc(Nc2nccc(-c3sc(C(C)(C)C)nc3-c3cccc(NS(=O)(=O)N4CCc5ccc(C#N)cc54)c3F)n2)c1 [Example 241, N-(3-(2-(tert-butyl)-5-(2-((3-((dimethylamino)-methyl)phenyl)-amino)pyrimidin-4-yl)thiazol-4-yl)-2-fluorophenyl)-6-cyanoindoline-1-sulfonamide]
302	CC(C)(C)c1nc(-c2cccc(NS(=O)(=O)N3CCc4ccc(C#N)cc43)c2F)c(-c2ccnc(Nc3ccc(S(C)(=O)=O)cc3)n2)s1 [Example 242, N-(3-(2-(tert-butyl)-5-(2-((4-(methylsulfonyl)-phenyl)amino)-pyrimidin-4-yl)thiazol-4-yl)-2-fluoro-phenyl)-6-cyanoindoline-1-sulfonamide]
1200	CC(C)(C)c1nc(-c2cccc(NS(=O)(=O)N3Cc4ccc(C(F)(F)F)cc4C3)c2F)c(-c2ccnc(NC3CCN(S(C)(=O)=O)CC3)n2)s1 [Example 243, N-(3-(2-(tert-butyl)-5-(2-((1-(methylsulfonyl)-piperidin-4-yl)amino)-pyrimidin-4-yl)thiazol-4-yl)-2-fluoro-phenyl)-5-(trifluoromethyl)-isoindoline-2-sulfonamide]

Reference: patent publication US20260274833A1 (NiKang Therapeutics, Inc., priority 2022, published 2026)
